Assay results as given in patent US20050032096A1, “Methods for predicting drug sensitivity in patients afflicted with hypertension” (deCODE genetics ehf., priority 2003, published 2005).

How the values were obtained:
hypertensive patients = assay: Clinical response to 8 weeks of drug therapy, patients categorized as responders or non-responders; assay type: in vivo, human; details: 8 weeks therapy; for patients who demonstrate a clinical response (responders): BP reduced by 10 mm/Hg systole and/or 6 mm/Hg diastole or more
Source text: • a. Hypertension diagnosed by a Cardiologist. The method used to diagnose hypertension is based on the ICE-9 and ICD-10 classification system, and concurs with the diagnostic hypertension criteria outlined by the American Heart Association and includes the following measures: Blood pressure greater than 140 systolic and 90 diastolic (adult person). For this study, individuals will be recruited primarily with moderate to severe hypertension. • b. Patients with hypertension with a severity level that is judged to be appropriate to treatment with Ramace™ were recruited to participate in the study. Study patients signed a consent and donate a blood sample for the study. • c. Phenotype was confirmed by measurement of blood pressure levels at different time points. • d. Age 12-80 years. • e. Both males and females were recruited. • f. White Caucasian (Icelandic hypertensive patient population). • g. Ramace™ therapy for 8 weeks. Examination by a study cardiologist every 3 weeks who confirmed clinical response to Ramace™ therapy. • h. Response to Ramace™: Patients were categorized as either Ramace™ responders or Ramace™ non-responders. […] The same cardiologists examined all 57 patients before and after Ramace™ trial.
All patients recruited were treated with therapeutic doses of Ramace™ for minimum of 8 weeks and examined by the study cardiologist before and after starting the drug. Blood samples were drawn at a similar time (e.g., around 9 AM) in the morning from all patients. The dose of the ACE inhibitor was recorded for all patients, before and 4 weeks after the patient was started on the study drug. No diet restrictions are implemented.
(§1) • a. Hypertension diagnosed by a Cardiologist. The method used to diagnose hypertension is based on the ICE-9 and ICD-10 classification system, and concurs with the diagnostic hypertension criteria outlined by the American Heart Association and includes the following measures: Blood pressure greater than 140 systolic and 90 diastolic (adult person). For this study, individuals will be recruited primarily with moderate to severe hypertension. • b. Patients with hypertension with a severity level that is judged to be appropriate to treatment with Norvasc™ were recruited to participate in the study. Study patients signed a consent and donate a blood sample for the study. • c. Phenotype was confirmed by measurement of blood pressure levels at different time points. • d. Age 12-80 years. • e. Both males and females were recruited. • f. White Caucasian (Icelandic hypertensive patient population). • g. […] Response to Norvasc™: Patients were categorized as either Norvasc™ responders or Norvasc™ non-responders.
Blood samples were drawn at a similar time (e.g., around 9 AM) in the morning from all patients. The dose was recorded for all patients. No diet restrictions were implemented.
as §1, with “Cozaar™” for “Norvasc™”, “Cozaar™:” for “Norvasc™:”

AT1 receptor = molecular target: T1, AT1 receptor (Homo sapiens, UniProt P30556); details: cited from earlier work
T1 sequence (P30556 1-359): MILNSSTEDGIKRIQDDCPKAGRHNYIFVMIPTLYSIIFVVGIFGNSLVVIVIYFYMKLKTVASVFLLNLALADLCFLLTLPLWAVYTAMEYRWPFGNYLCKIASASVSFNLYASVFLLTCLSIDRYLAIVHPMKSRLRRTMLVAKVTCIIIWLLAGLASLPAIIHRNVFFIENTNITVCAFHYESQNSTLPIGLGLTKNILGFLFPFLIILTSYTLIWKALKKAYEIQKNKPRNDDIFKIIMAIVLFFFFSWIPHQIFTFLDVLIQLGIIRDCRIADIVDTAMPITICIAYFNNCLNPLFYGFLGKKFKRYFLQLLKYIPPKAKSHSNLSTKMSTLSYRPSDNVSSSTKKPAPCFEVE

ACE = ACE (Homo sapiens, UniProt P12821); details: cited from earlier work
[1] = in vivo; cited from earlier work
[2] = tested on: patients with chronic stable angina; details: placebo 4.4%, P=NS; cited from earlier work
[3] = tested on: patients with low renin hypertension; details: cited from earlier work

ACE, sequence (P12821 30-1306, species assumed): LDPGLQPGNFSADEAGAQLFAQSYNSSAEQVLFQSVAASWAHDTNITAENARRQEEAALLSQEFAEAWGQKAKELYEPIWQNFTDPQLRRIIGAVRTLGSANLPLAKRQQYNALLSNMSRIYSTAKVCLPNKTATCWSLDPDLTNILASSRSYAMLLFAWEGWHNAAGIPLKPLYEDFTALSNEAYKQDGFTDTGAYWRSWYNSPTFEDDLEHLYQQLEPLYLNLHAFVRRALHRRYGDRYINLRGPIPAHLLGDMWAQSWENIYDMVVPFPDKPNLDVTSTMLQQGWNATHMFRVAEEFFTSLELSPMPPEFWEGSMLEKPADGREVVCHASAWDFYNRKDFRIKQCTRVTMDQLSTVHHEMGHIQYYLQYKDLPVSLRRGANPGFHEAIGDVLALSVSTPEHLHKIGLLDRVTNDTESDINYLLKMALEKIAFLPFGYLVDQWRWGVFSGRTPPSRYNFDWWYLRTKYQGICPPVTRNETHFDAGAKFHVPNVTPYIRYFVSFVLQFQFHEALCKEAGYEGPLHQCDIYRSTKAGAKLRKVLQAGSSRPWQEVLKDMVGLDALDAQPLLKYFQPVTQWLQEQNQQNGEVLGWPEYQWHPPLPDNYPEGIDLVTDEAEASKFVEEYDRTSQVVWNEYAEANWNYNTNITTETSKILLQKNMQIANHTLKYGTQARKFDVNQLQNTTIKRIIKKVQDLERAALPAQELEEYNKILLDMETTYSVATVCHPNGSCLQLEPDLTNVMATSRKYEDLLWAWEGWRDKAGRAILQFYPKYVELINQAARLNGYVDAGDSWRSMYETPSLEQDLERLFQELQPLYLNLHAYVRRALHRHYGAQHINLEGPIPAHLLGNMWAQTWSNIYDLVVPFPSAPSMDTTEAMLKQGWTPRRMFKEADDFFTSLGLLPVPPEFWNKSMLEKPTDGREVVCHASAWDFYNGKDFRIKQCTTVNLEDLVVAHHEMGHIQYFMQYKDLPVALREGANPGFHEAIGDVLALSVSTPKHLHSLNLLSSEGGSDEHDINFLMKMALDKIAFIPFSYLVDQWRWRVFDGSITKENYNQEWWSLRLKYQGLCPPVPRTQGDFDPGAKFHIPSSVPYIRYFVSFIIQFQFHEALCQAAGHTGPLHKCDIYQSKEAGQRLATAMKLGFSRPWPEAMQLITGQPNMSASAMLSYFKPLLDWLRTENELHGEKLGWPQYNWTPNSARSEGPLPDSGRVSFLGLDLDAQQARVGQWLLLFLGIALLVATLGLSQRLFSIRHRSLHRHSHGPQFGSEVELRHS

Structure (SMILES)	non-responders (hypertensive patients; of 65 hypertensive patients) [patients]	patients who demonstrate a clinical response (responders) (hypertensive patients; of 65 hypertensive patients) [patients]	partial agonist activity at the AT1 receptor (AT1 receptor)	inhibition of ACE (ACE)	time to mean peak serum concentration [1]	patients who discontinued therapy due to adverse events [2] [%]	non-responders (hypertensive patients; of 57 hypertensive patients) [patients]	patients who demonstrate a clinical response (responders) (hypertensive patients; of 57 hypertensive patients) [patients]	anti-hypertensive effect [3]
CCCCc1nc(Cl)c(CO)n1Cc1ccc(-c2ccccc2-c2nn[nH]n2)cc1 [Cozaar, Losartan potassium]	18	47	do not exhibit any partial agonist activity	Neither losartan nor its active metabolite inhibits ACE	one	–	–	–	–
CCOC(=O)C1=C(COCCN)NC(C)=C(C(=O)OC)C1c1ccccc1Cl (centres unmarked) [Norvasc, amlodipine]	19	46	–	–	–	2	–	–	–
CCOC(=O)[C@H](CCc1ccccc1)N[C@@H](C)C(=O)N1[C@H](C(=O)O)C[C@@H]2CCC[C@@H]21 [Ramace, ramipril]	–	–	–	–	–	–	22	35	anti-hypertensive
